Test results: US20220274979A1 (Bayer Pharma Aktiengesellschaft, priority 2018, published 2022)

What follows are compounds tested against T1, hSOS1 (hSOS1-mediated loading of hK-RasG12C-GDP) (Homo sapiens, UniProt Q07889) (assay: Biochemical Assay 3: hK-RasG12C activation assay by hSOS1 (loading with fluorescent GTP analog, HTRF)). Details: no GTP.
T1 construct: hSOS1 (amino acid 564-1049); made in house; host or cells: E. coli BL21 (DE3)
T1 sequence (Q07889 with tags, fused parts or gaps): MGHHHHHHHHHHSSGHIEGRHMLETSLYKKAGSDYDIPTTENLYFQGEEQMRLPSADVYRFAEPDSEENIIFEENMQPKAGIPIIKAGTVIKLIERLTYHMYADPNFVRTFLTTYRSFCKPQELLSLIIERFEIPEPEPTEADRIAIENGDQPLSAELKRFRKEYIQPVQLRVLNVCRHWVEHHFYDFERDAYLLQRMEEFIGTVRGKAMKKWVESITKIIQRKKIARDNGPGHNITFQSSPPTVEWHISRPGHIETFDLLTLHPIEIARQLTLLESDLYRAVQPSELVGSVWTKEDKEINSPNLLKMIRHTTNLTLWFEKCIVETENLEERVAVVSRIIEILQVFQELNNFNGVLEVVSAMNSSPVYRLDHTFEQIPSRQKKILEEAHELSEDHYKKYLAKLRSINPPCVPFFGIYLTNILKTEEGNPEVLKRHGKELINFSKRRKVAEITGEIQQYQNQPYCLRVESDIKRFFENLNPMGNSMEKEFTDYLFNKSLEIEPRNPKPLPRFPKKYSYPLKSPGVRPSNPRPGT
Excerpt: Biochemical Assay 3: hK-RasG12C Activation Assay by hSOS1
K-Ras is a small GTPase that can bind GDP and GTP. The guanine nucleotide exchange factor SOS1 catalyzes the activation of K-Ras by promoting the exchange of GDP to GTP. SOS1 binds to K-Ras-GDP thereby opening the GDP-binding pocket to facilitate GDP release. Rebinding of excess nucleotide leads to dissociation of the K-Ras-SOS1 intermediate complex leaving K-Ras loaded with the nucleotide.
This assay quantifies human SOS1-(hSOS1-)mediated loading of human K-Ras^G12C-GDP (hK-RasG12C-GDP) with a fluorescent GTP-analog. Detection of successful loading is achieved by measuring homogenous time-resolved fluorescence resonance energy transfer (HTRF) from antiGST-Terbium (FRET donor) bound to GST-hK-RasG12C (see below) to the loaded fluorescent GTP analog (FRET-acceptor).
The fluorescent GTP-analog EDA-GTP-Dy647P1 (2′/3′-O-(2-Aminoethyl-carbamoyl)-guanosine-5′-triphosphate labelled with Dy647P1 (Dyomics GmbH, Germany)) was synthesized by Jena Biosciences GmbH (Germany) and supplied as a 1 mM aqueous solution.
The assay buffer contained 10 mM HEPES pH 7.4 (Applichem), 150 mM NaCl (Sigma), 5 mM MgCl2 (Sigma), 1 mM DTT (Thermofisher), 0.05% BSA Fraction V, pH 7.0, (ICN Biomedicals), 0.0025% (v/v) Igepal (Sigma).
Concentrations of protein batches used were optimized to be within the linear range of the HTRF signal. A hRas working solution was prepared in assay buffer containing typically 100 nM GST-hK-RasG12C and 2 nM antiGST-Tb (Cisbio, France). A hSOS1 working solution was prepared in assay buffer containing typically 20 nM hSOS1 and 200 nM EDA-GTP-Dy647P1. An inhibitor control solution was prepared in assay buffer containing 200 nM EDA-GTP-Dy647P1 without hSOS1.
Fifty nl of a 100-fold concentrated solution of the test compound in DMSO were transferred into a black microtiter test plate (384 or 1536, Greiner Bio-One, Germany) For this, either a Hummingbird liquid handler (Digilab, Mass., USA) or an Echo acoustic system (Labcyte, Calif., USA) was used.
All steps of the assay were performed at 20° C. A volume of 2.5 μl of the hRas working solution was added to all wells of the test plate using a Multidrop dispenser (Thermo Labsystems). After 10 min. preincubation, 2.5 μl of the hSOS1 working solution were added to all wells except for those wells at the side of the test plate that were subsequently filled with 2.5 μl of the inhibitor control solution. After […] incubation the fluorescence was measured with a Pherastar (BMG, Germany) using the HTRF module (excitation 337 nm, emission 1: 620 nm, emission 2:665 nm).
IC50 values were calculated by 4-Parameter fitting using a commercial software package (Genedata Screener, Switzerland).

SMILES	IC50 [nM]
Cc1nc(NC(C)c2ccc(-c3ccccc3CN(C)C)s2)c2cc(N3CC(NC(=O)C4CCCCC4)C3)ncc2n1 (stereo not drawn) [Example 90, N-[1-(4-{[1-(5-{2-[(dimethylamino)methyl]phenyl}thiophen-2-yl)ethyl]amino}-2-methylpyrido[3,4-d]pyrimidin-6-yl)azetidin-3-yl]cyclohexanecarboxamide]	190
COc1ccc2nc(C)nc(N[C@H](C)c3cccc(Br)c3)c2n1 [Example 28, N-[(1R)-1-(3-bromophenyl)ethyl]-6-methoxy-2-methylpyrido[3,2-d]pyrimidin-4-amine]	> 20000
Cc1nc(N[C@H](C)c2cccc(Br)c2)c2nc(OCc3ccccc3)ccc2n1 [Example 33, 6-(benzyloxy)-N-[(1R)-1-(3-bromophenyl)ethyl]-2-methylpyrido[3,2-d]pyrimidin-4-amine]	> 20000
Cc1nc(N[C@H](C)c2cccc(Br)c2)c2cc(NCCn3cccn3)ncc2n1 [Example 49, N4-[(1R)-1-(3-bromophenl)pethyl]-2-methyl-N6-[2-(1H-pyrazol-1-yl)ethyl]pyrido[3,4-d]pyrimidine-4,6-diamine]	6990
Cc1nc(NC(C)c2ccc(-c3ccccc3CN(C)C)s2)c2cc(C3(O)CCN(C)C3=O)ncc2n1 (mixture of isomers) [Example 85, 3-(4-{[1-(5-{2-[(dimethylamino)methyl]phenyl}thiophen-2-yl)ethyl]amino}-2-methylpyrido[3,4-d]pyrimidin-6-yl)-3-hydroxy-1-methylpyrrolidin-2-one]	212
CC(=O)NCCNc1cc2c(N[C@H](C)c3cccc(Br)c3)nc(C)nc2cn1 [Example 44, N-{2-[(4-{[(1R)-1-(3-bromophenyl)ethyl]amino}-2-methylpyrido[3,4-d]pyrimidin-6-yl)amino]ethyl}acetamide]	1640
COc1cc2c(N[C@H](C)c3ccc(F)c(C4CC4)c3)nc(C)nc2cn1 [Example 12]	8170
Cc1nc(N[C@H](C)c2cccc(Br)c2)c2cc(OCCCN(C)C)ncc2n1 [Example 70, N-[(1R)-1-(3-bromophenyl)ethyl]-6-[3-(dimethylamino)propoxy]-2-methylpyrido[3,4-d]pyrimidin-4-amine]	1340
CCOc1ccc2nc(C)nc(N[C@H](C)c3cccc(Br)c3)c2n1 [Example 29, N-[(1R)-1-(3-bromophenyl)ethyl]-6-ethoxy-2-methylpyrido[3,2-d]pyrimidin-4-amine]	> 20000
Cc1nc(NC(C)c2ccc(-c3ccccc3CN(C)C)s2)c2cc(OC3CCS(=N)(=O)CC3)ncc2n1 (stereo not drawn) [Example 77, N-[1-(5-{2-[(dimethylamino)methyl]phenyl}-2-thienyl)ethyl]-6-[(1-imino-1-oxidohexahydro-1lambda4-thiopyran-4-yl)oxy]-2-methylpyrido[3,4-d]pyrimidin-4-amine]	84.3
CCOc1cc2c(NC(C)c3ccc(-c4ccccc4CN(C)C)s3)nc(C)nc2cn1 (stereo not drawn) [Example 63, N-[1-(5-{2-[(dimethylamino)methyl]phenyl}thiophen-2-yl)ethyl]-6-ethoxy-2-methylpyrido[3,4-d]pyrimidin-4-amine]	61.1
Cc1nc(NC(C)c2ccc(-c3ccccc3CN(C)C)s2)c2cc(OCC3CC3)ncc2n1 (stereo not drawn) [Example 73, 6-(cyclopropylmethoxy)-N-[1-(5-{2-[(dimethylamino)methyl]phenyl}thiophen-2-yl)ethyl]-2-methylpyrido[3,4-d]pyrimidin-4-amine]	138
Cc1nc(NC(C)c2ccc(-c3ccccc3CN(C)C)s2)c2cc(C3CCN(C)C3=O)ncc2n1 (mixture of isomers) [Example 69, 3-(4-{[1-(5-{2-[(dimethylamino)methyl]phenyl}thiophen-2-yl)ethyl]amino}-2-methylpyrido[3,4-d]pyrimidin-6-yl)-1-methylpyrrolidin-2-one]	141
COc1cc2c(NC(C)c3cccc4sccc34)nc(C)nc2cn1 (stereo not drawn) [Example 4, N-[1-(1-benzothiophen-4-yl)ethyl]-6-methoxy-2-methylpyrido[3,4-d]pyrimidin-4-amine]	555
CCOc1cc2c(N[C@H](C)c3cccc(Br)c3)nc(C)nc2cn1 [Example 5, N-[(1R)-1-(3-bromophenyl)ethyl]-6-ethoxy-2-methylpyrido[3,4-d]pyrimidin-4-amine]	2150
Cc1nc(N[C@H](C)c2cccc(Br)c2)c2cc(Oc3cccc(O)c3)ncc2n1 [Example 40, 3-[(4-{[(1R)-1-(3-bromophenyl)ethyl]amino}-2-methylpyrido[3,4-d]pyrimidin-6-yl)oxy]phenol]	> 20000
CC(=O)NC1CCN(c2cc3c(N[C@H](C)c4cccc(Br)c4)nc(C)nc3cn2)C1 (mixture of isomers) [Example 42, N-[1-(4-{[(1R)-1-(3-bromophenyl)ethyl]amino}-2-methylpyrido[3,4-d]pyrimidin-6-yl)pyrrolidin-3-yl]acetamide]	366
COc1cc2c(N[C@H](C)c3cccc(Br)c3)nc(C)nc2cn1 [Example 57, N-[(1R)-1-(3-bromophenyl)ethyl]-6-methoxy-2-methylpyrido[3,4-d]pyrimidin-4-amine]	1780
Cc1nc(N[C@H](C)c2cccc(Br)c2)c2nc(N(C)C)ccc2n1 [Example 31]	> 20000
CCOc1cc2c(N[C@H](C)c3cccc(Cl)c3)nc(C)nc2cn1 [Example 6]	1690
Cc1nc(N[C@H](C)c2cccc(Br)c2)c2cc(Oc3cccc(C4=NCCN4C)c3)ncc2n1 [Example 41, N-[(1R)-1-(3-bromophenyl)ethyl]-2-methyl-6-[3-(1-methyl-4,5-dihydro-1H-imidazol-2-yl)phenoxy]pyrido[3,4-d]pyrimidin-4-amine]	3880
Cc1nc(N[C@H](C)c2cccc(Br)c2)c2nc(OCc3ccccc3)ncc2n1 [Example 20, 6-(benzyloxy)-N-[(1R)-1-(3-bromophenyl)ethyl]-2-methylpyrimido[5,4-d]pyrimidin-4-amine]	≥ 40000
Cc1nc(NC(C)c2ccc(-c3ccccc3CN(C)C)s2)c2cc(NCCN3CCOCC3)ncc2n1 (stereo not drawn) [Example 48]	114
Cc1nc(NC(C)c2ccc(-c3ccccc3CN(C)C)s2)c2cc(N3CC(NS(=O)(=O)c4ccccc4)C3)ncc2n1 (stereo not drawn) [Example 94, N-[1-(4-{[1-(5-{2-[(dimethylamino)methyl]phenyl}thiophen-2-yl)ethyl]amino}-2-methylpyrido[3,4-d]pyrimidin-6-yl)azetidin-3-yl]benzenesulfonamide]	170
Cc1nc(N[C@H](C)c2cccc(Br)c2)c2cc(F)ncc2n1 [Example 34, N-[(1R)-1-(3-bromophenyl)ethyl]-6-fluoro-2-methylpyrido[3,4-d]pyrimidin-4-amine]	> 20000
CC(=O)NCCNc1cc2c(NC(C)c3ccc(-c4ccccc4CN(C)C)s3)nc(C)nc2cn1 (stereo not drawn) [Example 51, N-{2-[(4-{[1-(5-{2-[(dimethylamino)methyl]phenyl}thiophen-2-yl)ethyl]amino}-2-methylpyrido[3,4-d]pyrimidin-6-yl)amino]ethyl}acetamide]	89.5
Cc1nc(NC(C)c2ccc(-c3ccccc3CN(C)C)s2)c2cc(NCCn3ccnc3)ncc2n1 (stereo not drawn) [Example 56, N4-[1-(5-{2-[(dimethylamino)methyl]phenyl}-2-thienyl)ethyl]-N6-[2-(1H-imidazol-1-yl)ethyl]-2-methylpyrido[3,4-d]pyrimidine-4,6-diamine]	89.5
